Numbered stars: 1 amine (or outer) side, 2 acyl side, 3 side chain; on linkers, the order of the positions; unused ones are H or OH. Bridge positions count the residues as written; N and C are the ends. Square brackets hold non-standard residues; d marks the D form. Peptide text beside a SMILES is read from it. * marks the point of attachment. 1,2,3Thiadiazole5CO(4-Me) = Cc1nnsc1C(=O)*; Phenoxyacetyl = O=C(COc1ccccc1)*; Cysteamide = C(CS[*:3])N[*:1]; 4Amb = NCc1ccc(C(=O)O)cc1; Isovaleryl = CC(C)CC(=O)*; Orn = NCCC[C@H](N)C(=O)O; 2Furoyl = O=C(c1ccco1)*; Bz = O=C(c1ccccc1)*; βAla = NCCC(=O)O; Mpa = O=C(O)CCS
Target: T1, thrombin (Homo sapiens, UniProt P00734)
T1 construct: consists of two polypeptide chains of 36 (light chain) and 259 amino acid
Assay: Thrombin inhibition screen of crude macrocycle reactions (residual thrombin activity, fluorogenic substrate Z-Gly-Gly-Arg-AMC)
Format: biochemical
Settings: 10 µM macrocycle concentration; crude reactions, Library 1a-l; scaffold AA1-AA2-AA3 combined with 1-16 or '-'
Outline: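 Each crude macrocycle (10 μM) was preincubated 10 min at room temperature with thrombin (2 nM final) in Tris-Cl pH 7.4 containing NaCl, MgCl2, CaCl2, 0.1% BSA, 0.01% Triton X-100 and 0.6% DMSO. Z-Gly-Gly-Arg-AMC (50 μM final) was then added. Inhibition came from fluorescence slopes relative to DMSO-only controls.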

| percent residual thrombin activity | SMILES |
| --- | --- |
| 109.796% | O=C1CCSSCCNC(=O)c2ccc(cc2)CNC(=O)[C@H](Cc2c[nH]c3ccccc23)NC(=O)[C@H](CCCNC(=O)c2ccc(Cl)s2)N1 [D2-W-B3/14] |
| 116.257% | Cc1nnsc1C(=O)NCCC[C@@H]1NC(=O)CCSSCCNC(=O)c2ccc(cc2)CNC(=O)[C@H](Cc2c[nH]c3ccccc23)NC1=O [D2-W-B3/15] |
| 110.008% | NCCC[C@@H]1NC(=O)CCSSCCNC(=O)c2ccc(cc2)CNC(=O)[C@H](Cc2c[nH]c3ccccc23)NC1=O [D2-W-B3/-] ([Mpa][Orn]W[4Amb]-Cysteamide; disulfide 1-C) |
| 105.138% | O=C1CCSSCCNC(=O)[C@@H]2CCCN2C(=O)[C@H](Cc2ccc(O)cc2)NC(=O)[C@H](CCCNC(=O)c2ccco2)N1 [D2-Y-B1/16] ([Mpa][Orn](2Furoyl)YP-Cysteamide; disulfide 1-C) |
| 113.72% | C[C@H]1NC(=O)[C@H](CCCNC(=O)c2ccccc2)NC(=O)CCSSCCNC(=O)CCNC1=O [D2-a-B2/1] ([Mpa][Orn](Bz)[dA][βAla]-Cysteamide; disulfide 1-C) |
| 113.133% | COc1ccc(C(=O)NCCC[C@@H]2NC(=O)CCSSCCNC(=O)CCNC(=O)[C@@H](C)NC2=O)cn1 [D2-a-B2/10] |
| 109.862% | C[C@H]1NC(=O)[C@H](CCCNC(=O)Cc2c[nH]c3ccccc23)NC(=O)CCSSCCNC(=O)CCNC1=O [D2-a-B2/12] |
| 108.542% | C[C@H]1NC(=O)[C@H](CCCNC(=O)c2ccc(Cl)s2)NC(=O)CCSSCCNC(=O)CCNC1=O [D2-a-B2/14] |
| 108.059% | CC(C)CC(=O)NCCCC[C@@H]1NC(=O)[C@H](Cc2ccccc2)NC(=O)CCSSCCNC(=O)[C@H]2CCCN(C2)C1=O [F-D1-B4/8] |
| 109.797% | O=C(COc1ccccc1)NCCCC[C@@H]1NC(=O)[C@H](Cc2ccccc2)NC(=O)CCSSCCNC(=O)[C@H]2CCCN(C2)C1=O [F-D1-B4/13] |
| 108.958% | CC(C)CC(=O)NCCC[C@@H]1NC(=O)CCNC(=O)[C@H](Cc2cnc[nH]2)NC(=O)CCSSCCNC1=O [H-B2-D2/8] |
| 106.277% | O=C1CCNC(=O)[C@H](Cc2c[nH]cn2)NC(=O)CCSSCCNC(=O)[C@H](CCCNC(=O)c2c[nH]c(=O)cn2)N1 [H-B2-D2/9] |
| 112.021% | O=C1CCNC(=O)[C@H](Cc2c[nH]cn2)NC(=O)CCSSCCNC(=O)[C@H](CCCNC(=O)c2c[nH]c(=O)[nH]c2=O)N1 [H-B2-D2/11] |
| 94.6113% | O=C1CCNC(=O)[C@H](Cc2c[nH]cn2)NC(=O)CCSSCCNC(=O)[C@H](CCCNC(=O)c2ccc(Cl)s2)N1 [H-B2-D2/14] |
| 110.75% | O=C1CCNC(=O)[C@H](Cc2c[nH]cn2)NC(=O)CCSSCCNC(=O)[C@H](CCCNC(=O)c2ccco2)N1 [H-B2-D2/16] |
| 98.3606% | COc1ccc(C(=O)NCCCC[C@@H]2NC(=O)c3cccc(c3)CNC(=O)[C@H](Cc3cnc[nH]3)NC(=O)CCSSCCNC2=O)cn1 [H-B5-D1/10] |
| 101.253% | NCCCC[C@@H]1NC(=O)c2cccc(c2)CNC(=O)[C@H](Cc2cnc[nH]2)NC(=O)CCSSCCNC1=O [H-B5-D1/-] |
| 104.965% | CC[C@H](C)[C@@H]1NC(=O)CCSSCCNC(=O)[C@H](CCCCNC(=O)c2cc(C)on2)NC(=O)c2cccc(c2)CNC1=O [I-B5-D1/3] |
| 106.327% | CC[C@H](C)[C@@H]1NC(=O)CCSSCCNC(=O)[C@H](CCCCNC(=O)c2c[nH]c(=O)[nH]c2=O)NC(=O)c2cccc(c2)CNC1=O [I-B5-D1/11] |
| 103.325% | CC[C@H](C)[C@@H]1NC(=O)CCSSCCNC(=O)[C@H](CCCCN)NC(=O)c2cccc(c2)CNC1=O [I-B5-D1/-] |
| 114.834% | CC[C@H](C)[C@@H]1NC(=O)CCSSCCNC(=O)[C@H]2CCCN(C2)C(=O)[C@H](CCCCNC(=O)c2cnccn2)NC1=O [I-D1-B4/2] |
| 113.791% | CC[C@H](C)[C@@H]1NC(=O)CCSSCCNC(=O)[C@H]2CCCN(C2)C(=O)[C@H](CCCCNC(=O)c2c[nH]c(=O)[nH]c2=O)NC1=O [I-D1-B4/11] |
| 114.483% | CC[C@H](C)[C@@H]1NC(=O)CCSSCCNC(=O)[C@H]2CCCN(C2)C(=O)[C@H](CCCCN)NC1=O [I-D1-B4/-] |
| 106.945% | CC(C)CC(=O)NCCC[C@@H]1NC(=O)[C@H]2CCCN(C2)C(=O)[C@H](CC(C)C)NC(=O)CCSSCCNC1=O [L-B4-D2/8] |
| 107.664% | COc1ccc(C(=O)NCCC[C@@H]2NC(=O)[C@H]3CCCN(C3)C(=O)[C@H](CC(C)C)NC(=O)CCSSCCNC2=O)cn1 [L-B4-D2/10] |
| 105.489% | CC(C)C[C@@H]1NC(=O)CCSSCCNC(=O)[C@H](CCCNC(=O)Cc2c[nH]c3ccccc23)NC(=O)[C@H]2CCCN(C2)C1=O [L-B4-D2/12] |

| percent residual thrombin activity | SMILES |
| --- | --- |
| 110.982% | CC(C)C[C@@H]1NC(=O)CCSSCCNC(=O)[C@H](CCCNC(=O)COc2ccccc2)NC(=O)[C@H]2CCCN(C2)C1=O [L-B4-D2/13] |
| 97.6394% | CC(C)C[C@@H]1NC(=O)CCSSCCNC(=O)[C@H](CCCNC(=O)c2ccc(Cl)s2)NC(=O)[C@H]2CCCN(C2)C1=O [L-B4-D2/14] |
| 109.552% | CC(C)C[C@@H]1NC(=O)CCSSCCNC(=O)[C@H](CCCN)NC(=O)[C@H]2CCCN(C2)C1=O [L-B4-D2/-] |
| 107.636% | CC(C)C[C@@H]1NC(=O)CCSSCCNC(=O)[C@H](CCCCNC(=O)c2cnccn2)NC(=O)C2(CC2)CNC1=O [L-B6-D1/2] |
| 98.21% | CC(C)C[C@@H]1NC(=O)CCSSCCNC(=O)[C@H](CCCCNC(=O)c2c[nH]c(=O)cn2)NC(=O)C2(CC2)CNC1=O [L-B6-D1/9] |
| 94.7651% | CC(C)C[C@@H]1NC(=O)CCSSCCNC(=O)[C@H](CCCCNC(=O)c2ccc(Cl)s2)NC(=O)C2(CC2)CNC1=O [L-B6-D1/14] |
| 103.319% | CC(C)C[C@@H]1NC(=O)CCSSCCNC(=O)[C@H](CCCCN)NC(=O)C2(CC2)CNC1=O [L-B6-D1/-] |
| 109.409% | CC(C)CC(=O)NCCCC[C@@H]1NC(=O)[C@H](CC(C)C)NC(=O)CCSSCCNC(=O)[C@@H]2CCCN2C1=O [L-D1-B1/8] ([Mpa]LK(Isovaleryl)P-Cysteamide; disulfide 1-C) |
| 112.403% | CC(C)C[C@@H]1NC(=O)CCSSCCNC(=O)[C@@H]2CCCN2C(=O)[C@H](CCCCNC(=O)COc2ccccc2)NC1=O [L-D1-B1/13] ([Mpa]LK(Phenoxyacetyl)P-Cysteamide; disulfide 1-C) |
| 110.815% | Cc1nnsc1C(=O)NCCCC[C@@H]1NC(=O)[C@H](CC(C)C)NC(=O)CCSSCCNC(=O)[C@@H]2CCCN2C1=O [L-D1-B1/15] ([Mpa]LK(1,2,3Thiadiazole5CO(4-Me))P-Cysteamide; disulfide 1-C) |
| 107.685% | NC(=O)CC[C@@H]1NC(=O)CCSSCCNC(=O)[C@H](CCCCNC(=O)c2cnccn2)NC(=O)C2(CC2)CNC1=O [Q-B6-D1/2] |
| 108.88% | NC(=O)CC[C@@H]1NC(=O)CCSSCCNC(=O)[C@H](CCCCNC(=O)c2c[nH]c(=O)[nH]c2=O)NC(=O)C2(CC2)CNC1=O [Q-B6-D1/11] |
| 103.639% | NC(=O)CC[C@@H]1NC(=O)CCSSCCNC(=O)[C@H](CCCCNC(=O)Cc2c[nH]c3ccccc23)NC(=O)C2(CC2)CNC1=O [Q-B6-D1/12] |
| 99.4946% | NC(=O)CC[C@@H]1NC(=O)CCSSCCNC(=O)[C@H](CCCCNC(=O)c2ccc(Cl)s2)NC(=O)C2(CC2)CNC1=O [Q-B6-D1/14] |
| 113.771% | NC(=O)CC[C@@H]1NC(=O)CCSSCCNC(=O)[C@H]2CCCN(C2)C(=O)[C@H](CCCCNC(=O)c2c[nH]c(=O)[nH]c2=O)NC1=O [Q-D1-B4/11] |
| 120.491% | NC(=O)CC[C@@H]1NC(=O)CCSSCCNC(=O)[C@H]2CCCN(C2)C(=O)[C@H](CCCCNC(=O)COc2ccccc2)NC1=O [Q-D1-B4/13] |
| 109.426% | NC(=O)CC[C@@H]1NC(=O)CCSSCCNC(=O)[C@H]2CCCN(C2)C(=O)[C@H](CCCCNC(=O)c2ccc(Cl)s2)NC1=O [Q-D1-B4/14] |
| 105.629% | O=C1CCSSCCNC(=O)[C@H](CCCNC(=O)c2ccccc2)NC(=O)c2ccc(cc2)CNC(=O)[C@H](CO)N1 [S-B3-D2/1] |
| 113.923% | CC(C)CC(=O)NCCC[C@@H]1NC(=O)c2ccc(cc2)CNC(=O)[C@H](CO)NC(=O)CCSSCCNC1=O [S-B3-D2/8] |
| 111.94% | O=C(Cc1c[nH]c2ccccc12)NCCC[C@@H]1NC(=O)c2ccc(cc2)CNC(=O)[C@H](CO)NC(=O)CCSSCCNC1=O [S-B3-D2/12] |
| 119.049% | O=C(COc1ccccc1)NCCC[C@@H]1NC(=O)c2ccc(cc2)CNC(=O)[C@H](CO)NC(=O)CCSSCCNC1=O [S-B3-D2/13] |
| 116.562% | Cc1nnsc1C(=O)NCCC[C@@H]1NC(=O)c2ccc(cc2)CNC(=O)[C@H](CO)NC(=O)CCSSCCNC1=O [S-B3-D2/15] |
| 114.086% | O=C1CCSSCCNC(=O)[C@H](CCCNC(=O)c2ccco2)NC(=O)c2ccc(cc2)CNC(=O)[C@H](CO)N1 [S-B3-D2/16] |
| 119.352% | NCCC[C@@H]1NC(=O)c2ccc(cc2)CNC(=O)[C@H](CO)NC(=O)CCSSCCNC1=O [S-B3-D2/-] |
| 117.639% | O=C1CCSSCCNC(=O)[C@H](CCCCNC(=O)c2c[nH]c(=O)[nH]c2=O)NC(=O)c2cccc(c2)CNC(=O)[C@H](CO)N1 [S-B5-D1/11] |
| 112.778% | O=C1CCSSCCNC(=O)[C@H](CCCCNC(=O)c2ccco2)NC(=O)c2cccc(c2)CNC(=O)[C@H](CO)N1 [S-B5-D1/16] |

Reference: PMC9250534, “Synthesis and direct assay of large macrocycle diversities by combinatorial late-stage modification at picomole scale” (Nature Communications, 2022)
